Source: patent US10703733B2, “MCL-1 inhibitors” (Gilead Sciences, Inc., priority 2018, dated 2020)
Read-outs that look alike come from different tables or passages of the source.

Key:
SKBR3 cells = assay: SKBR3 Cell Viability Assay (CellTiter Glo); format: cell-based; details: CellTiter Glo luminescence, read-out: MCL-1 CV SKBR3 EC50
In short: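 SKBR3 cells (6,000/well) in McCoy 5A + 10% FBS exposed to serially diluted compound for 72 h at 37° C., 5% CO2. Viability by CellTiter Glo luminescence; % inhibition normalized to DMSO (negative) and 10 μM puromycin (positive).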

[1] = molecular target: MCL-1/Bim interaction (recombinant human MCL-1 protein, residues 171-327; biotinylated human Bim peptide, residues 51-76) (Homo sapiens (Human), UniProt Q07820); assay: MCL-1/Bim Binding AlphaLISA Assay; details: 0.0625 nM 6xHis-Mcl-1 (171-327), 0.0625 nM biotinylated-Bim peptide
Chain of MCL-1/Bim interaction (recombinant human MCL-1 protein, residues 171-327; biotinylated human Bim peptide, residues 51-76) (Q07820 171-327): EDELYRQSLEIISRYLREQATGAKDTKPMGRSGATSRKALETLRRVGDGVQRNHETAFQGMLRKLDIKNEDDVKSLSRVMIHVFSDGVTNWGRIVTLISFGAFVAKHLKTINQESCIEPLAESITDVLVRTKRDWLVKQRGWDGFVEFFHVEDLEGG
In short: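 AlphaLISA with 0.0625 nM His-tagged MCL-1 and 0.0625 nM biotin-Bim peptide in 20 mM Hepes pH 7.5, 150 mM NaCl, 0.002% Brij 35, 1 mM DTT, 0.01% BSA. Compound preincubated 1 h with MCL-1, Bim added for 2 h, then acceptor and donor beads 1 h each.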

Row | EC50 (SKBR3 cells; Homo sapiens, SK-BR-3, 72 h) | IC50 [1] | EC50 (SKBR3 cells; 72 hours) | Compound
1 | 60.9 nM | 0.061 nM |  | CO[C@H]1/C=C/C[C@H](C)C[S@@](=O)(NC(=O)N2CC(OC)(c3ncnn3C)C2)=NC(=O)c2ccc3c(c2)N(C[C@@H]2CC[C@H]21)C[C@@]1(CCCc2cc(Cl)ccc21)CO3 [Example 277]
2 | 51.1 nM | 0.071 nM |  | CO[C@H]1/C=C/C[C@H](C)C[S@@](=O)(NC(=O)c2cc(C(=O)N(C)C)n(C)c2)=NC(=O)c2ccc3c(c2)N(C[C@@H]2CC[C@H]21)C[C@@]1(CCCc2cc(Cl)ccc21)CO3 [Example 332]
3 | 403 nM | 0.446 nM |  | CO[C@H]1/C=C/C[C@H](C)C[S@@](=O)(NC(=O)c2cc(C)cs2)=NC(=O)c2ccc3c(c2)N(C[C@@H]2CC[C@H]21)C[C@@]1(CCCc2cc(Cl)ccc21)CO3 [Example 434]
4 | 170 nM | 0.158 nM |  | CO[C@H]1/C=C/C[C@H](C)C[S@@](=O)(NC(=O)N2CC(F)(F)C2)=NC(=O)c2ccc3c(c2)N(C[C@@H]2CC[C@H]21)C[C@@]1(CCCc2cc(Cl)ccc21)CO3 [Example 323]
5 | 22.6 nM | 0.037 nM |  | COC[C@@H]1Cn2cc(C(=O)N[S@@]3(=O)=NC(=O)c4ccc5c(c4)N(C[C@@H]4CC[C@H]4[C@@H](O)/C=C/C[C@H](C)[C@H]3C)C[C@@]3(CCCc4cc(Cl)ccc43)CO5)cc2CO1 [Example 345]
6 | 13.4 nM | 0.024 nM |  | CO[C@H]1/C=C/C[C@H](C)C[S@@](=O)(NC(=O)N[C@H]2C[C@@H]2C(F)F)=NC(=O)c2ccc3c(c2)N(C[C@@H]2CC[C@H]21)C[C@@]1(CCCc2cc(Cl)ccc21)CO3 [Example 311]
7 | 83.8 nM | 0.048 nM |  | CNCCO[C@H]1/C=C/[C@H](OC)[C@@H]2CC[C@H]2CN2C[C@@]3(CCCc4cc(Cl)ccc43)COc3ccc(cc32)C(=O)N=[S@](=O)(NC(=O)c2cn(C)nc2OC)C[C@H]1C [Example 386]
8 |  | 0.106 nM | 34 nM | COc1nn(C)cc1C(=O)N[S@@]1(=O)=NC(=O)c2ccc3c(c2)N(C[C@@H]2CC[C@H]2[C@@H](OC)/C=C/[C@H](S(=O)(=O)c2ccc(C)cc2)[C@H](C)C1)C[C@@]1(CCCc2cc(Cl)ccc21)CO3 [Example 377]
9 | 26.7 nM | 0.031 nM |  | COCCOCCO[C@H]1/C=C/[C@H](OC)[C@@H]2CC[C@H]2CN2C[C@@]3(CCCc4cc(Cl)ccc43)COc3ccc(cc32)C(=O)N=[S@](=O)(NC(=O)c2cn(C)nc2OC)C[C@H]1C [Example 376]
10 | 174 nM | 0.099 nM |  | CO[C@H]1/C=C/C[C@H](C)C[S@@](=O)(NC(=O)N2CC3(CCOC3)C2)=NC(=O)c2ccc3c(c2)N(C[C@@H]2CC[C@H]21)C[C@@]1(CCCc2cc(Cl)ccc21)CO3 [Example 456]
11 | 32.9 nM | 0.054 nM |  | CO[C@H]1/C=C/C[C@H](C)C[S@@](=O)(NC(=O)N[C@H]2C[C@@](C)(CO)C2)=NC(=O)c2ccc3c(c2)N(C[C@@H]2CC[C@H]21)C[C@@]1(CCCc2cc(Cl)ccc21)CO3 [Example 314]
12 | 60.4 nM | 0.1 nM |  | CO[C@H]1/C=C/C[C@H](C)C[S@@](=O)(NC(=O)N[C@H]2C[C@@H](COC(=O)N(C)C)C2)=NC(=O)c2ccc3c(c2)N(C[C@@H]2CC[C@H]21)C[C@@]1(CCCc2cc(Cl)ccc21)CO3 [Example 336]
13 | 251 nM | 0.117 nM |  | CO[C@H]1/C=C/C[C@H](C)C[S@@](=O)(NC(=O)c2cn(C)nc2C(F)F)=NC(=O)c2ccc3c(c2)N(C[C@@H]2CC[C@H]21)C[C@@]1(CCCc2cc(Cl)ccc21)CO3 [Example 448]
14 | 130 nM | 0.478 nM |  | CO[C@H]1/C=C/C[C@H](C)C[S@@](=O)(NC(=O)c2cc(C)n(C)c2)=NC(=O)c2ccc3c(c2)N(C[C@@H]2CC[C@H]21)C[C@@]1(CCCc2cc(Cl)ccc21)CO3 [Example 413]
15 | 165 nM | 0.069 nM |  | CO[C@H]1/C=C/C[C@H](C)C[S@@](=O)(NC(=O)NC2COC2)=NC(=O)c2ccc3c(c2)N(C[C@@H]2CC[C@H]21)C[C@@]1(CCCc2cc(Cl)ccc21)CO3 [Example 428]

Continued, compound first:

Row | Compound | EC50 (SKBR3 cells; Homo sapiens, SK-BR-3, 72 h) | IC50 [1] | EC50 (SKBR3 cells; 72 hours)
16 | CO[C@H]1/C=C/C[C@H](C)C[S@@](=O)(NC(=O)N2CC(OC3CC3)C2)=NC(=O)c2ccc3c(c2)N(C[C@@H]2CC[C@H]21)C[C@@]1(CCCc2cc(Cl)ccc21)CO3 [Example 263] | 62.2 nM | 0.073 nM | 
17 | CO[C@H]1/C=C/C[C@H](C)C[S@@](=O)(NC(=O)c2cc3n(c2)CCc2c-3cnn2C)=NC(=O)c2ccc3c(c2)N(C[C@@H]2CC[C@H]21)C[C@@]1(CCCc2cc(Cl)ccc21)CO3 [Example 208] | 45 nM | 0.136 nM | 
18 | COc1nn(C)cc1C(=O)N[S@@]1(=O)=NC(=O)c2ccc3c(c2)N(C[C@@H]2CC[C@H]2[C@@H](OC)/C=C/C[C@H](C)[C@H]1C)C[C@@]1(CCCc2cc(Cl)ccc21)CO3 [Example 188] | 78.3 nM | 0.069 nM | 
19 | CO[C@H]1/C=C/CCC[S@@](=O)(NC(=O)CCCC(F)(F)F)=NC(=O)c2ccc3c(c2)N(C[C@@H]2CC[C@H]21)C[C@@]1(CCCc2cc(Cl)ccc21)CO3 [Example 95] | 1100 nM | 1.1 nM | 
20 | CO[C@H]1/C=C/CCC[S@@](=O)(NC(=O)NCc2ccncc2)=NC(=O)c2ccc3c(c2)N(C[C@@H]2CC[C@H]21)C[C@@]1(CCCc2cc(Cl)ccc21)CO3 [Example 79] | 3030 nM | 0.4 nM | 
21 | CCC(=O)NS1(=O)=NC(=O)c2ccc3c(c2)N(C[C@@H]2CC[C@H]2[C@@H](OC)/C=C/CC[C@H]1CC)C[C@@]1(CCCc2cc(Cl)ccc21)CO3 (single isomer, unassigned) [Example 65] |  | 1.8 nM | 1970 nM
22 | CO[C@H]1/C=C/C[C@H](C)C[S@@](=O)(NC(=O)N2CC3(CCCO3)C2)=NC(=O)c2ccc3c(c2)N(C[C@@H]2CC[C@H]21)C[C@@]1(CCCc2cc(Cl)ccc21)CO3 [Example 231] | 40 nM | 0.051 nM | 
23 | CC[C@H]1C/C=C/[C@H](OC)[C@@H]2CC[C@H]2CN2C[C@@]3(CCCc4cc(Cl)ccc43)COc3ccc(cc32)C(=O)N=[S@](=O)(NC(=O)c2cn(C)nc2OC)C1 [Example 220] | 97.8 nM | 0.122 nM | 
24 | CO[C@H]1/C=C/C[C@H](C)C[S@@](=O)(NC(=O)N2C3COCC2C3)=NC(=O)c2ccc3c(c2)N(C[C@@H]2CC[C@H]21)C[C@@]1(CCCc2cc(Cl)ccc21)CO3 [Example 236] | 152 nM | 0.055 nM | 
25 | CCN(C)C(=O)N[S@@]1(=O)=NC(=O)c2ccc3c(c2)N(C[C@@H]2CC[C@H]2[C@@H](OC)/C=C/CCC1)C[C@@]1(CCCc2cc(Cl)ccc21)CO3 [Example 77] | 6040 nM | 5.3 nM | 
26 | CO[C@H]1/C=C/CCC[S@@](=O)(NC(=O)CCc2c(C)cnn2C)=NC(=O)c2ccc3c(c2)N(C[C@@H]2CC[C@H]21)C[C@@]1(CCCc2cc(Cl)ccc21)CO3 [Example 103] | 10000 nM | 1 nM | 
27 | COC1CC2(C1)CN(C(=O)N[S@@]1(=O)=NC(=O)c3ccc4c(c3)N(C[C@@H]3CC[C@H]3[C@@H](OC)/C=C/C[C@H](C)C1)C[C@@]1(CCCc3cc(Cl)ccc31)CO4)C2 [Example 257] | 89.7 nM | 0.083 nM | 
28 | CO[C@H]1/C=C/CCC[S@@](=O)(NC(=O)COC2CCOCC2)=NC(=O)c2ccc3c(c2)N(C[C@@H]2CC[C@H]21)C[C@@]1(CCCc2cc(Cl)ccc21)CO3 [Example 105] | 351 nM | 0.1 nM | 
29 | CCC(=O)N[S@@]1(=O)=NC(=O)c2ccc3c(c2)N(C[C@@H]2CC[C@H]2[C@@H](OCCN2CCOCC2)/C=C/CCC1)C[C@@]1(CCCc2cc(Cl)ccc21)CO3 (single isomer, unassigned) [Example 67] | 1040 nM | 1.2 nM | 
30 | COCC1(OC)CN(C(=O)N[S@@]2(=O)=NC(=O)c3ccc4c(c3)N(C[C@@H]3CC[C@H]3[C@@H](OC)/C=C/C[C@H](C)C2)C[C@@]2(CCCc3cc(Cl)ccc32)CO4)C1 [Example 274] | 82.6 nM | 0.043 nM | 
31 | COc1nn(C(F)F)cc1C(=O)N[S@@]1(=O)=NC(=O)c2ccc3c(c2)N(C[C@@H]2CC[C@H]2[C@@H](OC)/C=C/C[C@H](C)C1)C[C@@]1(CCCc2cc(Cl)ccc21)CO3 [Example 252] | 82.7 nM | 0.043 nM | 
32 | CO[C@H]1/C=C/CCC[S@@](=O)(NC(=O)CCc2ccccn2)=NC(=O)c2ccc3c(c2)N(C[C@@H]2CC[C@H]21)C[C@@]1(CCCc2cc(Cl)ccc21)CO3 [Example 47] | 758 nM | 0.1 nM | 
33 | CO[C@H]1/C=C/CCC[S@@](=O)(NC(=O)CCc2ccon2)=NC(=O)c2ccc3c(c2)N(C[C@@H]2CC[C@H]21)C[C@@]1(CCCc2cc(Cl)ccc21)CO3 [Example 58] | 664 nM | 0.2 nM | 
34 | CO[C@H]1/C=C/CCC[S@@](=O)(NC(=O)CCn2nccc2C)=NC(=O)c2ccc3c(c2)N(C[C@@H]2CC[C@H]21)C[C@@]1(CCCc2cc(Cl)ccc21)CO3 [Example 56] | 1180 nM | 0.6 nM | 
35 | CO[C@H]1/C=C/C[C@H](C)C[S@@](=O)(NC(=O)c2cn(C)nc2OCCN2CCOCC2)=NC(=O)c2ccc3c(c2)N(C[C@@H]2CC[C@H]21)C[C@@]1(CCCc2cc(Cl)ccc21)CO3 [Example 319] | 19.9 nM | 0.038 nM | 
36 | CO[C@H]1/C=C/C[C@H](C)C[S@@](=O)(NC(=O)COC2(C)CCOCC2)=NC(=O)c2ccc3c(c2)N(C[C@@H]2CC[C@H]21)C[C@@]1(CCCc2cc(Cl)ccc21)CO3 [Example 124] | 95.8 nM | 0.066 nM | 
37 | CO[C@H]1/C=C/CCC[S@@](=O)(NC(=O)CCc2cccnc2)=NC(=O)c2ccc3c(c2)N(C[C@@H]2CC[C@H]21)C[C@@]1(CCCc2cc(Cl)ccc21)CO3 [Example 40] | 328 nM | 0.1 nM | 
